# Assay results published in US20170128518A1, “METHODS AND MATERIALS FOR IDENTIFYING AND TREATING MAMMALS RESISTANT TO PROTEASOME INHIBITOR TREATMENTS” (Mayo Foundation for Medical Education and Research, priority 2014, published 2017).
# Entries after “also recorded” stand apart in the source; their conditions may differ.
# Experiments:
# Type in all cases: cell-based, human
# [1] = test system: MWCL-1 cells; experiment: MTS viability assay, MWCL-1; details: 72-h MTS assay
# Procedure: (§1) Twenty thousand cells/200 μl in quadruplicates were incubated with serially diluted b-AP15 (1-1000 nmol/l) in 96-well plates at 37° C. for 72 hours. MTS (3-(4,5-dimethylthiazol-2-yl)-5-(3-carboxymethoxyphenyl)-2-(4-sulfophenyl)-2H-tetrazolium) reagent (Molecular Probes, Eugene, Oreg.) was added at 40 μl/well and the plates were further incubated at 37° C. for 3 hours and the developed color was read at 490 nm using a BioTek synergy HT plate reader against blanks with no cells.
# [2] = test system: RPCI-WM1; experiment: MTS viability assay, RPCI-WM1; details: 72-h MTS assay
# Procedure: as §1
# [3] = test system: NF-κB reporter in HEK293 cells expressing MYD88 L265P; experiment: NF-κB luciferase reporter assay; details: 24 hours; 0.5 μmol/l
# Procedure: HEK293 cells expressing MYD88 L265P were generated as described elsewhere (Ansell et al., Blood Cancer J, 4:e183, 2014). Cells were transiently transfected with 0.5 ng Renilla and 0.25 μg of a pNFκB-luciferase reporter plasmid/1.0×10^6 cells. b-AP15 was added to each well at the indicated doses; after 24 hours, luciferase activity was measured in cell extracts and normalized against Renilla with the Dual Luciferase Kit (Promega, Madison, Wis.).
# [4] = test system: WM cell lines (BCWM.1, BCWM.1/BR, RPCI-WM1, RPCI-WM/BR); experiment: NanoString nCounter gene expression profiling; details: 50 nmol/l (WT) or 100 nmol/l (BR), 24 hours
# Procedure: FIGS. 14A and 14B are diagrams depicting genes altered in b-AP15 treated WM cells. BCWM.1 and RPCI-WM1 were treated with b-AP15 (50 nmol/l), and BR clones were treated with 100 nmol/1 of the DUB inhibitor for 24 hours, followed by collection of RNA for profiling using the NanoString nCounter assay. FIG. 14A is an intersect analysis in which treated (Tx) cell lines were first compared to their untreated counterparts and then against one another to delineate which genes were altered in the same orientation across all four cell lines tested. FIG. 14B is a diagram of an IPA network analysis, depicting the relationship between the 36 genes and illustrating the interaction and relative expression of these genes. The darkness of the node color denotes the degree of differential gene expression as compared to baseline.
# Total RNA from four WM cell lines (BCWM.1, BCWM.1/BR, RPCI-WM1 and RPCI-WM/BR) were prepared using Exiqon miRCURY RNA isolation kit (Exiqon, Woburn, Mass. USA) following the manufacturer's instructions. RNA samples were quantitated using a ND-1000 spectrophotometer (NanoDrop) and evaluated for degradation using a 2100 Bioanalyzer (Agilent Technologies, Santa Clara, Calif., USA).
# The NanoString nCounter (NanoString, Seattle, Wash.) assay was used for mRNA quantification and expression in WM cells that were treated with b-AP15, as described elsewhere (Geiss et al., Nat Biotechnol 26:317-25, 2008; and Paulus et al., Brit J Haematol 164:352-65, 2014). Briefly, a library is constructed with two sequence-specific probes for the gene of interest. Unique pairs of 3′ reporter and 5′ capture probes are developed to distinguish transcripts for the gene of interest using a color-based barcoding system. The capture probe contains a base pair sequence that is complementary to the target mRNA and linked to a biotin affinity tag, which binds the mRNA of interest. The reporter probe also is also designed to be complementary to the target mRNA, contains a base sequence that is linked to an RNA-based color-coded molecular tag that provides a signal for detection. Using this method, a distinct color code is digitally generated for each gene of interest. In our experiments, all probes were mixed together with total RNA (100 ng from each sample) in a single hybridization reaction for 12 hours at 65° C. in solution. Using the nCounter Prep Station, each probe-mRNA complex was captured post-hybridization onto a streptavidin coated surface, aligned and imaged. Each sample was scanned for 600 FOV on the nCounter Digital Analyzer. As each target mRNA is designated by its unique color code, the level of expression was quantified by counting the number of codes for each molecule. Subsequent normalization of the raw data to internal controls provided by the manufacturer was performed using the nSolver Analysis software v1.1. Data was extracted using the nCounter RCC Collector; based on the positive and negative controls, a cutoff of 20 was used to filter out transcript signals that registered at levels of background noise.
# Statistical interpretation and data visualization (heat map) was conducted using Multi Experiment Viewer (MeV) from The Institute for Genomic Research (TIGR) (Saeed et al., Methods Enzymol 411:134-193, 2006; and Saeed et al., Biotechniques 34:374-378, 2003). Using the normalized data that was exported from nCounter RCC Collector, an average of mRNA transcript probe values was taken for each cell line (three biological replicates each) representing controls (untreated) and drug-treated samples, a tab-delimited text file was generated in Microsoft Excel and uploaded into MeV. Genes were log-2 transformed and mean centered. Bi-dimensional, average-linkage, unsupervised hierarchical clustering analysis was applied to find the relationships between samples and genes using the Pearson correlation coefficient.
smiles,measurement,setting,value
C=CC(=O)N1C/C(=C\c2ccc([N+](=O)[O-])cc2)C(=O)/C(=C/c2ccc([N+](=O)[O-])cc2)C1 [b-AP15],IC50,[1],7 nM
same,IC50,[2],16 nM
same,NF-κB luciferase reporter activity,[3],significantly reduced; also recorded: significant reduction
same,"Average fold change, AKT2",[4],−2.812 fold
same,"Average fold change, BIRC5",[4],−2.209 fold
same,"Average fold change, BMI1",[4],−3.09 fold
same,"Average fold change, CASP2",[4],−3.679 fold
same,"Average fold change, CCNA2",[4],−5.841 fold
same,"Average fold change, CCND2",[4],−3 fold
same,"Average fold change, CCNE1",[4],−4.193 fold
same,"Average fold change, CDC2",[4],−4.668 fold
same,"Average fold change, CDC25B",[4],−3.629 fold
same,"Average fold change, CDK4",[4],−2.59 fold
same,"Average fold change, CSK",[4],−3.871 fold
same,"Average fold change, E2F1",[4],−3.634 fold
same,"Average fold change, EGR1",[4],2.27 fold
same,"Average fold change, ETV6",[4],−4.643 fold
same,"Average fold change, FOS",[4],5.569 fold
same,"Average fold change, HDAC1",[4],−2.887 fold
same,"Average fold change, HRAS",[4],−3.277 fold
same,"Average fold change, IL8",[4],14.77 fold
same,"Average fold change, JUN",[4],5.625 fold
same,"Average fold change, MSH2",[4],−4.367 fold
same,"Average fold change, MSH6",[4],−4.242 fold
same,"Average fold change, MYB",[4],−9.647 fold
same,"Average fold change, MYBL2",[4],−2.794 fold
same,"Average fold change, MYC",[4],−3.287 fold
same,"Average fold change, PCNA",[4],−3.166 fold
same,"Average fold change, RAD54L",[4],−3.029 fold
same,"Average fold change, SERPINE1",[4],5.734 fold
same,"Average fold change, SPI1",[4],−2.522 fold
same,"Average fold change, SYK",[4],−3.84 fold
same,"Average fold change, TFDP1",[4],−4.261 fold
same,"Average fold change, TFRC",[4],−3.192 fold
same,"Average fold change, TOP2A",[4],−6.321 fold
same,"Average fold change, TUBB",[4],−3.724 fold
same,"Average fold change, TYMS",[4],−3.966 fold
same,"Average fold change, XPC",[4],−3.045 fold
same,"Average fold change, XRCC5",[4],−2.834 fold
